Reference: ChEMBL document CHEMBL3351875, “Synthesis of Deuterated Benzopyran Derivatives as Selective COX-2 Inhibitors with Improved Pharmacokinetic Properties” (ACS Med Chem Lett, 2014)

What was measured:
[1] = tested on: Rattus norvegicus; assay: (§1) AUC (0 to infinity) in Sprague-Dawley rat at 10 mg/kg, po measured during 1 to 24 hrs by LC-MS method; type: ADME, organism-based, Plasma; parameters: time infinity, dose 10 mg/kg, route oral; settings: in vivo
[2] = tested on: Rattus norvegicus; assay: Volume of distribution in Sprague-Dawley rat at 10 mg/kg, po measured during 1 to 24 hrs by LC-MS method; type: ADME, organism-based; parameters: dose 10 mg/kg, route oral; settings: in vivo
[3] = Cmax in Sprague-Dawley rat at 5 mg/kg, iv measured during 1 to 24 hrs by LC-MS method; type: ADME, organism-based; parameters: dose 5 mg/kg, route intravenous; settings: in vivo
[4] = Apparent oral clearance in Sprague-Dawley rat at 10 mg/kg, po measured during 1 to 24 hrs by LC-MS method; type: ADME, organism-based; parameters: dose 10 mg/kg, route oral; settings: Sprague-Dawley, in vivo
[5] = tested on: Rattus norvegicus; assay: Half life in Sprague-Dawley rat at 5 mg/kg, iv measured during 1 to 24 hrs by LC-MS method; type: ADME, organism-based; parameters: dose 5 mg/kg, route intravenous; settings: in vivo
[6] = Apparent oral clearance in Sprague-Dawley rat at 5 mg/kg, iv measured during 1 to 24 hrs by LC-MS method; type: ADME, organism-based; parameters: dose 5 mg/kg, route oral; settings: in vivo
[7] = Oral bioavailability in Sprague-Dawley rat at 10 mg/kg measured during 1 to 24 hrs by LC-MS method; type: ADME, organism-based; settings: Sprague-Dawley, in vivo
[8] = tested on: Rattus norvegicus; assay: Antiinflammatory activity in orally dosed Sprague-Dawley rat model of carrageenan-induced foot paw edema assessed as reduction in edema by plethysmometry; type: functional, organism-based
[9] = tested on: Rattus norvegicus; assay: Antiinflammatory activity in orally dosed Sprague-Dawley rat model of carrageenan-induced air pouch inflammation assessed as reduction in PGE2 level by ELISA method; type: functional, organism-based
[10] = tested on: Rattus norvegicus; assay: Antinociceptive activity in orally dosed Sprague-Dawley rat model of carrageenan-induced foot paw hyperalgesia assessed as paw withdrawal latency; type: functional, organism-based
[11] = tested on: Rattus norvegicus; assay: (§2) AUC (0 to infinity) in Sprague-Dawley rat at 5 mg/kg, iv measured during 1 to 24 hrs by LC-MS method; type: ADME, organism-based, Plasma; parameters: time infinity, dose 5 mg/kg, route intravenous; settings: in vivo
[12] = Volume of distribution in Sprague-Dawley rat at 5 mg/kg, iv measured during 1 to 24 hrs by LC-MS method; type: ADME, organism-based; parameters: dose 5 mg/kg, route intravenous; settings: in vivo
[13] = as §1; type: ADME, organism-based, Plasma; parameters: time infinity, dose 10 mg/kg, route oral; settings: Sprague-Dawley, plasma
[14] = tested on: Rattus norvegicus; assay: Half life in Sprague-Dawley rat at 10 mg/kg, po measured during 1 to 24 hrs by LC-MS method; type: ADME, organism-based; parameters: dose 10 mg/kg, route oral; settings: in vivo
[15] = tested on: Rattus norvegicus; assay: Tmax in Sprague-Dawley rat at 10 mg/kg, po measured during 1 to 24 hrs by LC-MS method; type: ADME, organism-based; parameters: dose 10 mg/kg, route oral; settings: in vivo
[16] = Cmax in Sprague-Dawley rat at 10 mg/kg, po measured during 1 to 24 hrs by LC-MS method; type: ADME, organism-based; parameters: dose 10 mg/kg, route oral; settings: in vivo
[17] = as §2; type: ADME, organism-based, Plasma; parameters: time infinity, dose 5 mg/kg, route intravenous; settings: Sprague-Dawley, plasma
[18] = molecular target: Prostaglandin G/H synthase 1 (Homo sapiens, UniProt P23219); assay: Inhibition of human recombinant COX1 pre-incubated for 15 mins before fluorometric substrate addition by fluorescence based assay
Chain of Prostaglandin G/H synthase 1 (P23219 whole entry): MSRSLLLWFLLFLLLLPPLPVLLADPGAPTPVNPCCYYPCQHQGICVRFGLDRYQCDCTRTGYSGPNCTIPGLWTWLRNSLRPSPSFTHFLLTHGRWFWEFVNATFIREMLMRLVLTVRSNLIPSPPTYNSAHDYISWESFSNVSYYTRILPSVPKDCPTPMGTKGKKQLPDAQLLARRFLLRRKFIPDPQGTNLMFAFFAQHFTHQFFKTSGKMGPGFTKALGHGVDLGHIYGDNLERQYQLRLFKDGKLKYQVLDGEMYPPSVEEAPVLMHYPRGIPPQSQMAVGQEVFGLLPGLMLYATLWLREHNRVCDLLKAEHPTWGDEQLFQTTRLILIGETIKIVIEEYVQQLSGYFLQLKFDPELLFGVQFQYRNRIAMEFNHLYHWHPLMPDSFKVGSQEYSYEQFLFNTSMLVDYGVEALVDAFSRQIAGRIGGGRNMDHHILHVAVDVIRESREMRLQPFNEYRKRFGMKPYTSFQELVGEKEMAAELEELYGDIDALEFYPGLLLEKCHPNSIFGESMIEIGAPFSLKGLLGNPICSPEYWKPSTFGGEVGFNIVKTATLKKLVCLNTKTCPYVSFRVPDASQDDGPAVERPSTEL

[19] = molecular target: T1, Prostaglandin G/H synthase 2 (Homo sapiens, UniProt P35354); assay: Inhibition of human recombinant COX2 pre-incubated for 15 mins before fluorometric substrate addition by fluorescence based assay
T1 sequence (P35354 whole entry): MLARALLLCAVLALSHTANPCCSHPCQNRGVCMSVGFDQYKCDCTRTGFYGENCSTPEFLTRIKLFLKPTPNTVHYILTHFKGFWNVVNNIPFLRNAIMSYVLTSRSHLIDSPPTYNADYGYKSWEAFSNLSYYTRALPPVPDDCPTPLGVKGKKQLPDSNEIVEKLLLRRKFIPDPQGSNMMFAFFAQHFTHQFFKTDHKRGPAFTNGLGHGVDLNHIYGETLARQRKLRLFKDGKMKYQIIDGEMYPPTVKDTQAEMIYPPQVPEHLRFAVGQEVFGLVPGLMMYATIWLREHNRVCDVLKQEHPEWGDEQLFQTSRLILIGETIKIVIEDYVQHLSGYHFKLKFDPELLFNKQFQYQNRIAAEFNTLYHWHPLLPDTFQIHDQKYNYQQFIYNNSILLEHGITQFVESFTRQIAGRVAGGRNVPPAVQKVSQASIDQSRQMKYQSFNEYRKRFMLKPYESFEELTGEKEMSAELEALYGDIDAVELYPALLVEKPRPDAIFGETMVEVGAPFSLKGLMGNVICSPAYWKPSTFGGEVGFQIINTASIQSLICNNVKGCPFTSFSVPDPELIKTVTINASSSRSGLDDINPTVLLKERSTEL

[20] = tested on: Rattus norvegicus; assay: Volume of distribution in Sprague-Dawley rat at 25 mg/kg, po measured during 1 to 24 hrs by LC-MS method; type: ADME, organism-based; parameters: dose 25 mg/kg, route oral; settings: in vivo
[21] = AUC (0 to infinity) in Sprague-Dawley rat at 25 mg/kg, po measured during 1 to 24 hrs by LC-MS method; type: ADME, organism-based; parameters: time infinity, dose 25 mg/kg, route oral; settings: plasma
[22] = Half life in Sprague-Dawley rat at 25 mg/kg, po measured during 1 to 24 hrs by LC-MS method; type: ADME, organism-based; parameters: dose 25 mg/kg, route oral; settings: in vivo
[23] = Cmax in Sprague-Dawley rat at 25 mg/kg, po measured during 1 to 24 hrs by LC-MS method; type: ADME, organism-based; parameters: dose 25 mg/kg, route oral; settings: in vivo
[24] = Oral bioavailability in Sprague-Dawley rat at 25 mg/kg measured during 1 to 24 hrs by LC-MS method; type: ADME, organism-based; settings: in vivo
[25] = Tmax in Sprague-Dawley rat at 25 mg/kg, po measured during 1 to 24 hrs by LC-MS method; type: ADME, organism-based; parameters: dose 25 mg/kg, route oral; settings: in vivo
[26] = Apparent oral clearance in Sprague-Dawley rat at 25 mg/kg, po measured during 1 to 24 hrs by LC-MS method; type: ADME, organism-based; parameters: dose 25 mg/kg, route oral; settings: in vivo

Structure (SMILES) | Vd [2] [L/kg] | Cmax [3] [ng/mL] | CL/F [4] [mL/min/kg] | t1/2 [5] [h] | CL/F [6] [mL/min/kg] | bioavailability [7] [%] | Vd [12] [L/kg] | AUC(0-inf) [17] [ng·h/mL] | IC50 [18] [µM] | other results
[2H]C([2H])([2H])c1cc2c(c(C([2H])([2H])[2H])c1Cl)C=C(C(=O)O)C(C(F)(F)F)O2 (centres undefined) | 0.26 | 38800 | 1.43 | 2.525 | 1.32 | 92.8 | 0.287 | – | – | AUC [1]: 118331.438 ng·h/mL; EC50 [8]: 5.18 mg/kg; EC50 [9]: 0.47 mg/kg; EC50 [10]: 2.77 mg/kg; AUC [11]: 63759.714 ng·h/mL
CC(C)(C)c1cc2c(cc1Cl)C=C(C(=O)O)[C@@H](C(F)(F)F)O2 [TIGEMOCOXIB] | 2.314 | 37200 | 4.03 | 5.78 | 2.67 | 67.5 | 1.35 | 31300 | – | AUC(0-inf) [13]: 42200 ng·h/mL; t1/2 [14]: 6.68 h; Tmax [15]: 0.75 h; Cmax [16]: 8150 ng/mL
Cc1c(Br)c(C)c2c(c1Br)OC(C(F)(F)F)C(C(=O)O)=C2 (centres undefined) | – | – | – | – | – | – | – | – | > 100 | IC50 [19]: 0.069 µM
CCc1cc(OC(F)(F)F)cc2c1OC(C(F)(F)F)C(C(=O)O)=C2 (centres undefined) | – | 37200 | – | 5.446 | 0.633 | – | 0.301 | 131000 | > 100 | Vd [20]: 0.678 L/kg; AUC(0-inf) [21]: 511000 ng·h/mL; half-life [22]: 9.54 h; Cmax [23]: 29500 ng/mL; bioavailability [24]: 78.6%; Tmax [25]: 1.62 h; CL/F [26]: 0.817 mL/min/kg
